Results reported in patent US20090234017A1, “TREATING SKIN DISORDERS” (priority 2005, published 2009).

Tested on: psoriasis
Assay: Case report: psoriasis in a patient treated with midodrine for hypotension

COc1ccc(OC)c(C(O)CNC(=O)CN)c1 (centres unmarked) [midodrine]
improvement of the patient's psoriasis (person with moderate psoriasis, midodrine five mg three times a day for three months): ≥ 90% | psoriasis after discontinuing use of midodrine (same patient, after discontinued use of midodrine): psoriasis returned
